The structures appear in SMILES notation. A value given as a limit tells only on which side of the number the result lay.

Results on six compounds are retold here after patent US9273084B2, “Moenomycin analogs, methods of synthesis, and uses thereof” (priority 2012, dated 2016).

What all share (format): cell-based
The subject of one assay is S. pneumoniae #1629. Briefly: MIC assay, 96 well broth dilution with MTT staining. To be noted: TSB containing 5% sheep blood, 35-37° C., 20 h. The procedure: (§1) A 96 well plate with 100 μL test medium in all wells was prepared by handheld multipipettor. A stock solution of the antibiotic or compound in DMSO (0.05˜10 mg/mL, 5 μL) and the same medium (95 μL) were put together into column one, where the compound concentration doubled the highest one to be tested. Two columns were necessary for each compound to check the reproducibility. The compound was diluted by adding 100 μL from column one to column two with a 50% volume mix done three times; diluting serially across the plate was continued.
(§2) The day before the assay was scheduled to be run, strains were suspended in the test media (Brain Heart Infusion (BHI) containing 0.1% casamino acids for S. aureus, S. epidermidis, and E. faecalis, Trypticase Soy Broth (TSB) containing 5% sheep blood for S. pneumoniae, and Lysogeny Broth (LB) for E. coli) and incubated overnight at 35-37° C. The suspension was diluted with the same media to 1%, 100 μL of which was added to each well of the MIC plate. The MIC plate was incubated at 35-37° C. for 20 h. A thiazolyl blue tetrazolium bromide (MTT) solution (1 mg/mL-water, 50 μL) was added into each well and the resulting MIC plate was incubated at 35-37° C. for a few hours to stain wells in which cell proliferated. Growth is also visible as any turbidity in wells.

The test system of another assay is S. pneumoniae 6303. The description is as above. The settings on record: TSB containing 5% sheep blood, 35-37° C., 20 h. Here is the method: as §1, §2
The next assay has as its system S. aureus 25923. The assay is described as above. More on the design: unit not given beside the values. The settings on record: S. aureus 25923 (second strain line); BHI containing 0.1% casamino acids; 35-37° C., 20 h. Here is the method: as §1, §2
The subject of a further assay is S. aureus 13709. Described as above. More on the design: unit not given beside the values. The settings on record: BHI containing 0.1% casamino acids, 35-37° C., 20 h. Here is the method: as §1, §2
For another assay, the system named is E. coli MG1655. The description is as above. Also noted: unit not given beside the values. The settings on record: LB, 35-37° C., 20 h. The procedure:
as §1, §2

The test system of a further assay is E. coli NR698. Also noted: unit not given beside the values. The settings on record: LB, 35-37° C., 20 h. Here is the method: as §1, §2
In the next assay the test system is E. faecalis 33186. Briefly: MIC assay, 96 well broth dilution with MTT staining. More on the design: unit not given beside the values. The settings on record: BHI containing 0.1% casamino acids, 35-37° C., 20 h. The procedure:
as §1, §2
In general terms: In broth dilution the organism is exposed to a series of concentrations in liquid medium.

A further assay has as its system S. epidermidis 1228. The description is as above. Also noted: unit not given beside the values. To be noted: BHI containing 0.1% casamino acids, 35-37° C., 20 h. Here is the method:
as §1, §2

The subject of another assay is S. epidermidis 700562. The description is as above. More on the design: unit not given beside the values. The settings on record: BHI containing 0.1% casamino acids, 35-37° C., 20 h. The procedure: as §1, §2
For the next assay, the system named is E. faecalis 29212. The description is as above. More on the design: unit not given beside the values. The settings on record: BHI containing 0.1% casamino acids, 35-37° C., 20 h. The procedure: as §1, §2
Where [1] appears, read: S. aureus 13709 (first strain line).
Where [2] appears, read: S. aureus 13709 (third strain line).

For `CC(=O)NC1C(OC2C(COC3OC(CO)C(O)C(O)C3O)OC(OC3C(OP(=O)(O)OCC(OCC=C(C)CCC=C(C)CCC=C(C)CCC=C(C)C)C(=O)O)OC(C(N)=O)C(C)(O)C3OC(N)=O)C(NC(C)=O)C2O)OC(C)C(OC2OC(C(=O)NC3=C(O)CCC3=O)C(O)C(O)C2O)C1O.N` [1b, N1-[(2-Hydroxy-5-oxo-cyclopenten-1-yl)-(5S)-β-D-galactopyranuronamide]-(1→4)-2-acetamide-2,6-dideoxy-β-D-gluopyranosyl-(1→4)-[β-D-glucopyranosyl-(1→6)]-2-acetamido-2-deoxy-β-D-glucopyranosyl)-(1→2)-3-O-carbamoyl-1-O—{[(R)-2-carboxy-2-((2Z,6E,10E)-3,7,11,15-tetramethyl-hexadeca-2,6,10,14-tetraen-1-yloxy)ethoxy]hydroxyphosphoryl}-4-C-methyl-α-D-glucopyranuronamide], the MIC came to 3.9 in the assay on S. pneumoniae #1629; 2.0 in the assay with S. pneumoniae 6303; 3.9 in the assay on S. aureus 25923; 3.9 in the assay with S. aureus 13709 (setting [1]); 2.0 in the assay with S. aureus 13709 (setting [2]); 63 against E. coli MG1655. Moreover, the MIC with E. coli NR698 was determined as 0.061.
For `CC(=O)NC1C(OC2C(COC3OC(CO)C(O)C(O)C3O)OC(OC3C(OP(=O)(O)OCC(OCC=C(C)CCC=C(C)CCC=C(C)C)C(=O)O)OC(C(N)=O)C(C)(O)C3OC(N)=O)C(NC(C)=O)C2O)OC(C)C(OC2OC(C(=O)NC3=C(O)CCC3=O)C(O)C(O)C2O)C1O.N` [1c, N1-[(2-Hydroxy-5-oxo-cyclopenten-1-yl)-(5S)-β-D-galactopyranuronamide]-(1→4)-2-acetamide-2,6-dideoxy-β-D-gluopyranosyl-(1→4)-[β-D-glucopyranosyl-(1→6)]-2-acetamido-2-deoxy-β-D-glucopyranosyl)-(1→2)-3-O-carbamoyl-1-O—{[(R)-2-carboxy-2-((2Z,6E)-3,7,11-trimethyl-dodeca-2,6,10-trien-1-yloxy)ethoxy]hydroxyphosphoryl}-4-C-methyl-α-D-glucopyranuronamide], the MIC is recorded as 31 against S. pneumoniae #1629; 63 against S. pneumoniae 6303; >250 >250 250 in the assay on S. aureus 25923; 250 >250 against E. faecalis 33186; >250 >250 250 with S. aureus 13709 (setting [1]); >250 >250 250 in the assay with S. aureus 13709 (setting [2]). The MIC was >250 >250 in the assay on S. epidermidis 1228; >250 >250 in the assay on S. epidermidis 700562; greater than 250 against E. coli MG1655; 250 >250 against E. faecalis 29212; 0.98 in the assay with E. coli NR698.
As for `CCCCCCCCCCCCCCCCCCCCOC(COP(=O)(O)OC1OC(C(N)=O)C(C)(O)C(OC(N)=O)C1OC1OC(COC2OC(CO)C(O)C(O)C2O)C(OC2OC(C)C(OC3OC(C(=O)NC4=C(O)CCC4=O)C(O)C(O)C3O)C(O)C2NC(C)=O)C(O)C1NC(C)=O)C(=O)O.N` [1d, N1-[(2-Hydroxy-5-oxo-cyclopenten-1-yl)-(5S)-β-D-galactopyranuronamide]-(1→4)-2-acetamide-2,6-dideoxy-β-D-gluopyranosyl-(1→4)-[β-D-glucopyranosyl-(1→6)]-2-acetamido-2-deoxy-β-D-glucopyranosyl)-(1→2)-3-O-carbamoyl-1-O—{[(R)-2-carboxy-2-(eicosan-1-yloxy)ethoxy]hydroxyphosphoryl}-4-C-methyl-α-D-glucopyranuronamide], the MIC against S. pneumoniae #1629 amounted to 3.1; in the assay with S. pneumoniae 6303 it was 2.0; in the assay with S. aureus 25923, 0.63; in the assay on S. aureus 13709 (setting [1]) it was 1.3; with S. aureus 13709 (setting [2]) it was 0.63; against S. epidermidis 1228, 0.63. For the same compound, the MIC with S. epidermidis 700562 turned out to be 1.3; in the assay on E. coli MG1655, 7.8; in the assay with E. coli NR698, 0.0049.
Regarding `CCCCCCCCCCCCCCCCCCOC(COP(=O)(O)OC1OC(C(N)=O)C(C)(O)C(OC(N)=O)C1OC1OC(COC2OC(CO)C(O)C(O)C2O)C(OC2OC(C)C(OC3OC(C(=O)NC4=C(O)CCC4=O)C(O)C(O)C3O)C(O)C2NC(C)=O)C(O)C1NC(C)=O)C(=O)O.N` [1e, N1-[(2-Hydroxy-5-oxo-cyclopenten-1-yl)-(5S)-β-D-galactopyranuronamide]-(1→4)-2-acetamide-2,6-dideoxy-β-D-gluopyranosyl-(1→4)-[β-D-glucopyranosyl-(1→6)]-2-acetamido-2-deoxy-β-D-glucopyranosyl)-(1→2)-3-O-carbamoyl-1-O—{[(R)-2-carboxy-2-(octadecan-1-yloxy)ethoxy]hydroxyphosphoryl}-4-C-methyl-α-D-glucopyranuronamide], the MIC in the assay on S. aureus 25923 is listed as 0.98; with E. faecalis 33186, 0.98; against S. aureus 13709 (setting [1]), 2.0; with S. aureus 13709 (setting [2]), 0.98; in the assay on E. coli MG1655, 63; against E. faecalis 29212, 0.49. In addition, the MIC in the assay on E. coli NR698 worked out at 0.0024.
Regarding `CC(=O)NC1C(OC2C(COC3OC(CO)C(O)C(O)C3O)OC(OC3C(OP(=O)(O)OCC(OCCCCCCCCCCC(F)(F)C(F)(F)C(F)(F)C(F)(F)C(F)(F)C(F)(F)C(F)(F)C(F)(F)F)C(=O)O)OC(C(N)=O)C(C)(O)C3OC(N)=O)C(NC(C)=O)C2O)OC(C)C(OC2OC(C(=O)NC3=C(O)CCC3=O)C(O)C(O)C2O)C1O.N` [1f, N1-[(2-Hydroxy-5-oxo-cyclopenten-1-yl)-(5S)-β-D-galactopyranuronamide]-(1→4)-2-acetamide-2,6-dideoxy-β-D-gluopyranosyl-(1→4)-[β-D-glucopyranosyl-(1→6)]-2-acetamido-2-deoxy-β-D-glucopyranosyl)-(1→2)-3-O-carbamoyl-1-O—{[(R)-2-carboxy-2-(11,11,12,12,13,13,14,14,15,15,16,16,17,17,18,18,18-heptadecafluoro-octadecan-1-yloxy)ethoxy]hydroxyphosphoryl}-4-C-methyl-α-D-glucopyranuronamide], the MIC in the assay with S. pneumoniae #1629 stood at 0.98; with S. pneumoniae 6303, 2.0; with S. aureus 25923, 2.0; in the assay on E. faecalis 33186, 2.0; against S. aureus 13709 (setting [1]) it was 3.9; with S. aureus 13709 (setting [2]), 2.0. In addition, the MIC against S. epidermidis 1228 is 0.98; with S. epidermidis 700562, 2.0; in the assay with E. coli MG1655 it was 250; with E. faecalis 29212 it was 0.98; against E. coli NR698, greater than 0.16.
`CC(=O)NC1C(OC2C(COC3OC(CO)C(O)C(O)C3O)OC(OC3C(OP(=O)(O)OCC(OCc4cccc(OCc5cccc(-c6cccc(OCc7cccc(-c8ccccc8)c7)c6)c5)c4)C(=O)O)OC(C(N)=O)C(C)(O)C3OC(N)=O)C(NC(C)=O)C2O)OC(C)C(OC2OC(C(=O)NC3=C(O)CCC3=O)C(O)C(O)C2O)C1O.N` [1h, N1-[(2-Hydroxy-5-oxo-cyclopenten-1-yl)-(5S)-β-D-galactopyranuronamide]-(1→4)-2-acetamide-2,6-dideoxy-β-D-gluopyranosyl-(1→4)-[β-D-glucopyranosyl-(1→6)]-2-acetamido-2-deoxy-β-D-glucopyranosyl)-(1→2)-3-O-carbamoyl-1-O—{[(R)-2-carboxy-2-(3-((3′-([1,1′-biphenyl]-3-ylmethoxy)-[1,1′-biphenyl]-3-yl)methoxy)phenylmethan-1-yloxy)ethoxy]hydroxyphosphoryl}-4-C-methyl-α-D-glucopyranuronamide]: the MIC with S. pneumoniae #1629 worked out at 2.0; against S. pneumoniae 6303 it was 0.98; with S. aureus 25923 it was 0.20; against E. faecalis 33186, 0.78; against S. aureus 13709 (setting [1]) it was 0.39; against S. aureus 13709 (setting [2]), 0.20. Further, the MIC against E. coli MG1655 is reported as 125; in the assay with E. faecalis 29212, 0.39; with E. coli NR698, 0.039.
